Read-outs that look alike come from different tables or passages of the source.

Results on four compounds are retold here after publication PMC11538706, “Integrated Electrochemical Aptamer Biosensing and Colorimetric pH Monitoring via Hydrogel Microneedle Assays for Assessing Antibiotic Treatment” (Advanced Science, 2024).

Data set [1] has as its system GEN aptamer. The experiment in a line: Specificity test of GEN aptamer-modified Flex electrode. The data set is classed as binding. As to conditions: buffer 1X PBS + 2 mM MgCl2; SWV; TOBI 10 µM, DOX 100 ng/mL. On the procedure:
Additionally, employing the “dual‐frequency” method reduced the batch‐to‐batch variability and improved the sensor response (Figure S6, Supporting Information).
To determine the signal‐on and signal‐off frequencies for each of these aptamers, the aptamer‐modified Flex electrode was first dipped in a blank buffer and scanned (via SWV) at a range of frequencies (Ref). […] The sensor response at each target concentration and for each frequency was calculated via (I – I0) / I0, where “I” is the observed current (SWV peak height) at each condition, and “I0” is the observed current in the blank buffer. As a result, the frequency of 5 and 100 were selected as the signal‐off and signal‐on for the VAN aptamer. […] Afterward (and for the rest of the experiments), the sensor's response is defined as (I – I0) / I0, where the “I” represents the dual‐frequency current (I signal‐on / I signal‐off) at the experimental condition and “I0” represents the dual frequency current (I signal‐on / I signal‐off) of the (0 µM) buffer. To validate the selectivity of HMN‐Flex for VAN/GEN the aptamer‐functionalized Flex electrodes were subjected to non‐specific targets commonly present in ISF and their responses were recorded.

The nature of data set [2]: PK analysis: Cmax and AUC from PK models fitted to serum and ISF concentrations. Particulars: male, Sprague Dawley, rat, iv. The data set is classed as in vivo, Male Sprague Dawley rats. On the procedure: The estimation of PK parameters, such as the area under the time‐concentration level curve (AUC) and the peak concentrations (Cmax) was performed using two PK models describing the observed patterns of serum and ISF concentrations (Figure S13, Supporting Information) and the Spearman correlation test was used to assess the correlation between PK parameters in serum and ISF.^[ [53] ^] The ISF VAN concentrations used for PK analysis were drawn by interpolating the sensor's response in the VAN calibration curve. The VAN AUC and Cmax from ISF and serum were correlated with correlation values of 0.82 and 0.79, respectively (Figure 5c‐iii).
We also employed the HMN‐Flex assay for detecting GEN in ISF and drawing its PK profile. […] For this purpose, the HMN‐Flex response was monitored every 10 min up to 90 min, followed by two other measurements at 6‐ and 24‐hours (h) postinjection. […] To the best of our knowledge, this is the first time reporting the changes in ISF GEN levels in the rat animal models. […] Importantly, the PK measurements obtained using HMN‐Flex closely matched those derived from conventional blood‐based measurements while the high temporal resolution offered by the HMN‐Flex assay can potentially revolutionize the current TDM.
Two distinct PK models were utilized for this purpose: one for describing antibiotic concentrations in serum, using a 1‐compartment PK model with linear elimination, and another for ISF, consisting of three compartments in series. The model fitting process was carried out using the first‐order conditional estimation method with interaction (FOCEI) routine in Nonmem v7.4, and subsequent PK profiles were simulated from the fitted models using the mrgsolve package in R. AUC and Cmax values were directly derived from the simulated PK profiles, and the correlation between these PK parameters in serum and ISF was assessed using the Spearman correlation test.

On the set-up of data set [3]: method as in PMID 24972859, PMID 29019915. As to conditions: cited from earlier work.

As to `COc1cccc2c1C(=O)c1c(O)c3c(c(O)c1C2=O)C[C@@](O)(C(=O)CO)C[C@@H]3O[C@H]1C[C@H](N)[C@H](O)[C@H](C)O1` [DOX, Doxorubicin], in data set [1], the “GEN sensor response to non-specific targets” value is given as “did not produce a response”.

Regarding `CNC(C)C1CCC(N)C(OC2C(N)CC(N)C(OC3OCC(C)(O)C(NC)C3O)C2O)O1` (centres unmarked) [GEN, gentamicin], the AUC in data set [2] (ISF, 50 mg/kg, GEN, Rat # 4, dose 50 mg/kg i.v., read-out: ISF AUC (converted)) is 1070 µM·h; in data set [2] (ISF, 50 mg/kg, GEN, Rat # 5, dose 50 mg/kg i.v., read-out: ISF AUC (converted)) it was 1230 µM·h; in data set [2] (ISF, 100 mg/kg, GEN, Rat # 6, dose 100 mg/kg i.v., read-out: ISF AUC (converted)), 3490 µM·h; in data set [2] (interstitial fluid (ISF), 50 mg/kg, GEN, Rat # 2, dose 50 mg/kg i.v., read-out: ISF AUC (converted)) it was 509 µM·h; in data set [2] (interstitial fluid (ISF), 50 mg/kg, GEN, Rat # 3, dose 50 mg/kg i.v., read-out: ISF AUC (converted)), 776 µM·h; in data set [2] (interstitial fluid (ISF), 100 mg/kg, GEN, Rat # 1, dose 100 mg/kg i.v., read-out: ISF AUC (converted)) it was 848 µM·h. Moreover, the AUC in data set [2] (interstitial fluid (ISF), 100 mg/kg, GEN, Rat # 2, dose 100 mg/kg i.v., read-out: ISF AUC (converted)) was 827 µM·h; in data set [2] (serum, 50 mg/kg, GEN, Rat # 2, dose 50 mg/kg i.v., read-out: Serum AUC (converted)), 467 µM·h; in data set [2] (serum, 50 mg/kg, GEN, Rat # 3, dose 50 mg/kg i.v., read-out: Serum AUC (converted)) it was 321 µM·h; in data set [2] (serum, 50 mg/kg, GEN, Rat # 4, dose 50 mg/kg i.v., read-out: Serum AUC (converted)), 108 µM·h; in data set [2] (serum, 50 mg/kg, GEN, Rat # 5, dose 50 mg/kg i.v., read-out: Serum AUC (converted)), 2380 µM·h; in data set [2] (serum, 100 mg/kg, GEN, Rat # 1, dose 100 mg/kg i.v., read-out: Serum AUC (converted)), 2410 µM·h. The AUC is 1120 µM·h in data set [2] (serum, 100 mg/kg, GEN, Rat # 2, dose 100 mg/kg i.v., read-out: Serum AUC (converted)) and 3380 µM·h in data set [2] (serum, 100 mg/kg, GEN, Rat # 6, dose 100 mg/kg i.v., read-out: Serum AUC (converted)). Besides, the highest concentration (Cmax) in data set [2] (ISF, 50 mg/kg, GEN, Rat # 4, dose 50 mg/kg i.v., read-out: ISF Cmax) is 221 µM; in data set [2] (ISF, 50 mg/kg, GEN, Rat # 5, dose 50 mg/kg i.v., read-out: ISF Cmax), 387 µM; in data set [2] (ISF, 100 mg/kg, GEN, Rat # 6, dose 100 mg/kg i.v., read-out: ISF Cmax), 886 µM; in data set [2] (interstitial fluid (ISF), 50 mg/kg, GEN, Rat # 2, dose 50 mg/kg i.v., read-out: ISF Cmax), 148 µM; in data set [2] (interstitial fluid (ISF), 50 mg/kg, GEN, Rat # 3, dose 50 mg/kg i.v., read-out: ISF Cmax), 253 µM; in data set [2] (interstitial fluid (ISF), 100 mg/kg, GEN, Rat # 1, dose 100 mg/kg i.v., read-out: ISF Cmax), 279 µM. Further, the Cmax in data set [2] (interstitial fluid (ISF), 100 mg/kg, GEN, Rat # 2, dose 100 mg/kg i.v., read-out: ISF Cmax) came to 324 µM; in data set [2] (serum, 50 mg/kg, GEN, Rat # 2, dose 50 mg/kg i.v., read-out: Serum Cmax) it was 680 µM; in data set [2] (serum, 50 mg/kg, GEN, Rat # 3, dose 50 mg/kg i.v., read-out: Serum Cmax), 807 µM; in data set [2] (serum, 50 mg/kg, GEN, Rat # 4, dose 50 mg/kg i.v., read-out: Serum Cmax) it was 268 µM; in data set [2] (serum, 50 mg/kg, GEN, Rat # 5, dose 50 mg/kg i.v., read-out: Serum Cmax), 4100 µM; in data set [2] (serum, 100 mg/kg, GEN, Rat # 1, dose 100 mg/kg i.v., read-out: Serum Cmax), 1870 µM. For the same compound, the Cmax in data set [2] (serum, 100 mg/kg, GEN, Rat # 2, dose 100 mg/kg i.v., read-out: Serum Cmax) came out at 1320 µM; in data set [2] (serum, 100 mg/kg, GEN, Rat # 6, dose 100 mg/kg i.v., read-out: Serum Cmax), 4280 µM. The protein binding in data set [3] is 30%.

Regarding `NC[C@H]1O[C@H](O[C@H]2[C@H](O)[C@@H](O[C@H]3O[C@H](CO)[C@@H](O)[C@H](N)[C@H]3O)[C@H](N)C[C@@H]2N)[C@H](N)C[C@@H]1O` [TOBI, Tobramycin], the “GEN sensor response to non-specific targets” value in data set [1] is listed as “increase in current”.

For `CN[C@H](CC(C)C)C(=O)N[C@H]1C(=O)N[C@@H](CC(N)=O)C(=O)N[C@H]2C(=O)N[C@H]3C(=O)N[C@H](C(=O)N[C@H](C(=O)O)c4cc(O)cc(O)c4-c4cc3ccc4O)[C@H](O)c3ccc(c(Cl)c3)Oc3cc2cc(c3O[C@@H]2O[C@H](CO)[C@@H](O)[C@H](O)[C@H]2O[C@H]2C[C@](C)(N)[C@H](O)[C@H](C)O2)Oc2ccc(cc2Cl)[C@H]1O` [VAN, vancomycin], the AUC in data set [2] (in vivo, 15 mg/kg, VAN, Rat # 1, dose 15 mg/kg i.v., read-out: ISF AUC (converted)) was 37 µM·h; in data set [2] (in vivo, 15 mg/kg, VAN, Rat # 1, dose 15 mg/kg i.v., read-out: Serum AUC (converted)), 59.1 µM·h; in data set [2] (in vivo, 15 mg/kg, VAN, Rat # 2, dose 15 mg/kg i.v., read-out: ISF AUC (converted)) it was 8.72 µM·h; in data set [2] (in vivo, 15 mg/kg, VAN, Rat # 2, dose 15 mg/kg i.v., read-out: Serum AUC (converted)), 50.8 µM·h; in data set [2] (in vivo, 45 mg/kg, VAN, Rat # 1, dose 45 mg/kg i.v., read-out: ISF AUC (converted)), 139 µM·h; in data set [2] (in vivo, 45 mg/kg, VAN, Rat # 1, dose 45 mg/kg i.v., read-out: Serum AUC (converted)), 216 µM·h. Further, the AUC is 51.3 µM·h in data set [2] (in vivo, 45 mg/kg, VAN, Rat # 2, dose 45 mg/kg i.v., read-out: ISF AUC (converted)) and 184 µM·h in data set [2] (in vivo, 45 mg/kg, VAN, Rat # 2, dose 45 mg/kg i.v., read-out: Serum AUC (converted)). Moreover, the Cmax was found to be 28.3 µM in data set [2] (in vivo, 15 mg/kg, VAN, Rat # 1, dose 15 mg/kg i.v., read-out: ISF Cmax); 117 µM in data set [2] (in vivo, 15 mg/kg, VAN, Rat # 1, dose 15 mg/kg i.v., read-out: Serum Cmax); 8.4 µM in data set [2] (in vivo, 15 mg/kg, VAN, Rat # 2, dose 15 mg/kg i.v., read-out: ISF Cmax); 99.9 µM in data set [2] (in vivo, 15 mg/kg, VAN, Rat # 2, dose 15 mg/kg i.v., read-out: Serum Cmax); 94.5 µM in data set [2] (in vivo, 45 mg/kg, VAN, Rat # 1, dose 45 mg/kg i.v., read-out: ISF Cmax); 254 µM in data set [2] (in vivo, 45 mg/kg, VAN, Rat # 1, dose 45 mg/kg i.v., read-out: Serum Cmax). Further, the maximum concentration (Cmax) in data set [2] (in vivo, 45 mg/kg, VAN, Rat # 2, dose 45 mg/kg i.v., read-out: ISF Cmax) worked out at 36.5 µM; in data set [2] (in vivo, 45 mg/kg, VAN, Rat # 2, dose 45 mg/kg i.v., read-out: Serum Cmax), 239 µM.

One may read the AUC as concentration integrated over time. As usually defined, the Cmax is the maximum level reached in the sampled fluid or tissue.
